The values that follow come from patent publication US11590158B2, “Pharmaceutical compositions of lipoic acid choline ester salts and methods of treatment using same” (Novartis AG, priority 2020, dated 2023).

“Also recorded” adds a separate entry of the source. Where a name gives a salt, the structure may show the parent alone. Read-outs that look alike come from different tables or passages of the source.

Data set [1] in a line: Hygroscopicity (exposure to RH, DVS). The format is physicochemical. The conditions noted are these: for Hygroscopicity upon exposure: 58% RH for one day; for Hygroscopicity: solid salt, ambient conditions. An excerpt:
It is deliquescent upon exposure to 58% RH for one day. In DVS measurement, LACE chloride absorbs 18.6% moisture from 0% RH to 50% RH. The DVS isotherm is irreversible. It is amorphous at ambient but crystalline under 0% RH by Cryo-XRPD.

Data set [2] is described as follows: Stability in aqueous solutions or suspensions. The format is physicochemical. An excerpt: At pH 4.7 buffer solution about 4% degradation is observed.
Data set [3] is described as follows: Hygroscopicity (exposure to RH, DVS). The note with it: for Hygroscopicity / Hygroscopicity, water uptake: DVS; for Hygroscopicity: >70% RH; for Hygroscopicity, water uptake: until 70% RH. It counts as physicochemical.
The conditions of data set [4]: 1 week.
Protocol: (§1) LACE salts were dissolved in each of the following excipients: 0.01% benzalkonium chloride, 20 mM acetate buffer, 20 mM citrate buffer, 1% Na-carboxymethyl cellulose, 1% hydroxypropylmethyl cellulose and 0.01% Na-ethylene diamine tetraacetic acid.
Data set [5] can be described thus: Stability in organic solutions or suspensions. The format is physicochemical. The note with it: 40° C. for 1 week.
The next data set can be described thus: Photostability. The format is physicochemical.
Data set [6] can be described thus: Equilibration of LACE chloride in solvents (solubility test). The format is physicochemical. The conditions noted are these: 100 mg in 1 mL, 25° C. for 7 days. The text has this:
The mixture was equilibrated for 7 days, with visual observations at days 1, 2, and 7. If a slurry resulted, it was filtered and clear solutions were either cooled or evaporated.

The mark [7] stands for this setting: other solvents (EtOAC, acetone, IPA and THF).
The mark [8] stands for this setting: 5% solutions in aqueous excipients (0.01% BAC, 20 mM acetate, 20 mM citrate, 1% Na-CMC, 1% HPMC, 0.01% Na-EDTA), 40° C. for 2 weeks.
[9] abbreviates: same excipients, 40° C. for 2 weeks.
The mark [10] stands for this setting: same excipients, 40° C./75% RH for 2 weeks.
Setting [11] is: pH 4.7 buffer solution, 40° C. for 1 week.

Protocol for Excipient compatibility: as §1

Regarding `C[N+](C)(C)CCOC(=O)CCCCC1CCSS1` (centres unmarked) [LACE-OBs, lipoic acid choline ester besylate], the physical form entry in the data set “Solid state stability” (40° C. 75% RH for 1 week) was “become sticky”. Also, in “Solid state stability” (40° C. for 1 week), the “solid state stability / physical form” value is recorded as “stable”. Moreover, the Hygroscopicity upon exposure result in data set [1] is “deliquescent”; in data set [3] (58% RH up to 6 hours), “non hygroscopic”. Further, in data set [1], the Hygroscopicity entry was “hygroscopic”. Besides, the degradation in data set [2] (1 week) is listed as 10-99%; in data set [2] (1 week, pH 4.7) it was “about 4%”; in data set [4], less than 2%; in data set [5] (methanol and ethanol), “complete degradation”; in data set [5] (setting [7]), “severe degradation”. Further, in data set [3] (DVS from 50% RH to 90% RH), the “Hygroscopicity by DVS” value was “deliquescent”. Also, in the data set “Photostability” (amber vial), the photostability result was “stable”. Further, the “photostability, physical form” value in “Photostability” (amber vial) is on record as “remains the same”; in “Photostability” (clear vial), “decrease in crystallinity”. Moreover, the “photostability, degradation” value in “Photostability” (clear vial) was “severe degradation and color change”.
For the compound `C[N+](C)(C)CCOC(=O)CCCCC1CCSS1.[Br-]` (centres unmarked) [LACE bromide], the Hygroscopicity entry in data set [1] is “hygroscopic”.
As to `C[N+](C)(C)CCOC(=O)CCCC[C@@H]1CCSS1.[Cl-]` [LACE-Cl, lipoic acid choline ester chloride], the degradation entry in “Excipient compatibility” (setting [8]) was “about 5%”; in the data set “Excipient compatibility” (in Na-CMC, alanine and histidine, 25° C. for 1 week), 2-3%; in “Excipient compatibility” (setting [9]), “higher degradation”; in “Excipient compatibility” (setting [10]) it was “high-severe degradation”; in “Excipient compatibility” (with HPMC, 25° C. for 1 week), roughly 8%; in the data set “Excipient compatibility” (with HPβCD, 25° C. for 1 week), 3.35%. Further, the degradation result in “Solid state stability” (40° C. 75% RH for 1 week) is “approximately 7%”; in “Solid state stability” (40° C. for 1 week) it was “approximately 7%”; in data set [2] (setting [11]) it was “about 4%”; in data set [5] (methanol and ethanol), “complete degradation”; in data set [5] (setting [7]), “severe degradation”. Moreover, the physical form result in “Solid state stability” (40° C. 75% RH for 1 week) was “becomes sticky mass”. Also, the “solid state stability / physical form” value in the data set “Solid state stability” (40° C. for 1 week) is given as “becomes sticky mass”. Moreover, the “behaviour on handling / exposure at ambient conditions” value (“behaviour on handling / exposure” below) in “Solid state stability” is “not suitable for handling under normal conditions”. The “Comments (equilibration in solvent)” value is on record as “sticky solid” in data set [6] (2-Me-THF); “Clear solution after 7 days” in data set [6] (2 Methyl 2 butanone); “Clear solution after 7 days” in data set [6] (ACN); “almost dissolved” in data set [6] (Acetic acid); “initial suspension, with particles stuck on wall” in data set [6] (Acetone); “sticky solid” in data set [6] (Anisole). The “Comments (equilibration in solvent)” value in data set [6] (Benzyl alcohol) is reported as “Clear solution after 7 days”; in [6] (Chloroform), “clear solution that yielded an oil after”; in [6] (Cumene), “undissolved solid after 7 days”; in [6] (Cyclohexane) it was “undissolved solid after 7 days”; in data set [6] (DCM), “Clear solution after 7 days”; in data set [6] (Diethyl ether), “undissolved solid after 7 days”. Also, the “Comments (equilibration in solvent)” value in data set [6] (Dioxane) was “initial suspension, with particles stuck on wall”; in data set [6] (EtOAc), “suspension”; in data set [6] (EtOH), “Clear solution after 7 days”; in data set [6] (Ethyl formate) it was “suspension”; in data set [6] (IPAc) it was “undissolved solid after 7 days”; in [6] (MEK), “initial suspension, with particles stuck on wall”. Further, the “Comments (equilibration in solvent)” value is “initial suspension, with particles stuck on wall” in [6] (MTBE); “Clear solution after 7 days” in data set [6] (MeOH); “Clear solution after 7 days” in data set [6] (Nitromethane); “undissolved solid after 7 days” in data set [6] (Petroleum ether); “Clear solution after 7 days” in data set [6] (Propylene glycol); “almost dissolved” in data set [6] (Pyridine). Further, the “Comments (equilibration in solvent)” value is “initial suspension turning sticky” in data set [6] (THF), “sticky solid” in data set [6] (Toluene), “Clear solution after 7 days” in data set [6] (Water) and “undissolved solid after 7 days” in data set [6] (Xylene). Moreover, in data set [1], the Hygroscopicity upon exposure result is on record as “deliquescent”. Moreover, the “moisture absorbed in DVS” value in data set [1] (from 0% RH to 50% RH) came to 18.6%. The Hygroscopicity entry in [1] was “highly hygroscopic”. For the same compound, the “photostability, degradation” value in the data set “Photostability” (amber vial) was roughly 5%; in “Photostability” (clear vial), “severe degradation and color change”. Also, the “photostability, physical form” value in the data set “Photostability” (amber vial) and in the data set “Photostability” (clear vial) was “becomes sticky” throughout.
With `C[N+](C)(C)CCOC(=O)CCCCC1CCSS1.Cc1ccc(S(=O)(=O)[O-])cc1` (centres unmarked) [Form B, lipoic acid choline ester tosylate], in data set [3], the Hygroscopicity entry is given as “deliquescent >70% RH” and the “Hygroscopicity, water uptake” value is given as 0.55% water uptake until.
Taken in the same sequence, the figures for `C[N+](C)(C)CCOC(=O)CCCCC1CCSS1.Cc1ccc(S(=O)(=O)[O-])cc1` (centres unmarked) [Form A, lipoic acid choline ester tosylate] were “deliquescent >70% RH” and 0.64% water uptake until.
Consider `C[N+](C)(C)CCOC(=O)CCCCC1CCSS1.[I-]` (centres unmarked) [LACE-I, lipoic acid choline ester iodide], for which the degradation entry in the data set “Excipient compatibility” (setting [8]) is “about 5%”; in “Excipient compatibility” (setting [9]), “higher degradation”; in “Excipient compatibility” (setting [10]), “high-severe degradation”; in data set [2] (setting [11]) it was “about 4%”; in data set [5] (methanol and ethanol) it was “complete degradation”; in [5] (setting [7]) it was “severe degradation”. In addition, the physical form result in “Solid state stability” (40° C. 75% RH for 1 week) is “form remains the same”. The “solid state stability / physical form” value in the data set “Solid state stability” (40° C. for 1 week) is “stable”. For the same compound, in the data set “Solid state stability”, the “behaviour on handling / exposure” value was “changes color; also recorded: discoloration and possibly slow degradation”. Also, the Hygroscopicity upon exposure entry in data set [1] was “non-hygroscopic”. The “Hygroscopicity by DVS” value in data set [1] (DVS) was “non-hygroscopic”. For the same compound, the photostability result in “Photostability” (amber vial) is given as “stable”. In addition, the “photostability, physical form” value was “remains the same” in the data set “Photostability” (amber vial) and “remains unchanged” in “Photostability” (clear vial). The “photostability, degradation” value in the data set “Photostability” (clear vial) was “severe degradation and color change”.
For the compound “lipoic acid choline ester besylate [LACE-OBs]”, in “Solid state stability”, the “behaviour on handling / exposure” value is reported as “without any degradation”.
As to `C[N+](C)(C)CCOC(=O)CCCCC1CCSS1` (centres unmarked) [LACE-OTs, lipoic acid choline ester tosylate], the physical form result in “Solid state stability” (40° C. 75% RH for 1 week) is recorded as “become sticky”. Moreover, the “solid state stability / physical form” value in “Solid state stability” (40° C. for 1 week) was “stable”. The “behaviour on handling / exposure” value in “Solid state stability” was “without any degradation”. Besides, the Hygroscopicity upon exposure entry in data set [1] is “non-hygroscopic”. The “moisture absorbed in DVS” value in [3] (up to 60% RH) is “less than 2%”. Besides, the degradation in [4] is reported as less than 2%; in data set [4] (5 %), 1-3%; in [5] (methanol and ethanol), “complete degradation”; in data set [5] (setting [7]), “severe degradation”. Further, the photostability result in the data set “Photostability” (amber vial) was “stable”. Besides, the “photostability, physical form” value in “Photostability” (amber vial) was “remains the same”; in the data set “Photostability” (clear vial), “some amorphous content”. In “Photostability” (clear vial), the “photostability, degradation” value is “severe degradation and color change”.
